Entries after “also recorded” stand apart in the source; their conditions may differ.
Experiments:
[1] = test system: E1 and E2 distribution in 21-5/R809 cells; assay: Intracellular immunofluorescence of E1/E2 in 21-5/R809 cells before and after IFN-α treatment; format: cell-based, human; settings: anti E1/E2 staining, FIG. 16
Method: Cells were stained with anti E1/E2.
Cells were plated on […] coverslips in 24-well plates at a density of 5×10^4 cells per well. One day after seeding, cells were washed in PBS, fixed in 4% formaldehyde for 30 min and then permeabilized with 0.1% Triton X-100 in PBS for 15 min. Cells were then pretreated with blocking solution (0.5% bovin serum albumin in PBS) for 30 min and incubated for 1 h at room temperature with the primary antibodies diluted in blocking solution according to the manufacturer's instructions. After three washes in PBS, AlexaFluor-conjugated secondary antibodies were added to the cells at a 1:200 dilution for 1 h at room temperature. After washings with PBS, coverslips were washed in distilled water, and mounted in aqueous mounting medium Vectashield with DAPI (4′,6′-diamidino-2-phenylindole).

[2] = test system: HCV RNA in 21-5/R809 cells; assay: HCV RNA levels after IFN-α treatment of 21-5/R809 cell culture; format: cell-based, hepatitis C virus; settings: 21-5/R809 cells incubated with IFN-α
Text: FIGS. 17 and 18 show levels of HCV RNA or ribosomal RNA after IFN-α treatment of cell culture.

[3] = test system: HCV replication; settings: reference 101; cited from earlier work

Substance: Interferon alpha [IFN-α]
- ER-pattern distribution of E1 and E2 [1]: lose the typical ER-pattern distribution of E1 and E2; also recorded: changed the ER-pattern distribution of E1 and E2
- HCV RNA levels, absolute ([2]; FIG. 17): decrease
- HCV RNA levels relative to ribosomal RNA ([2]; FIG. 18): decrease
- HCV replication in cell culture [3]: inhibit HCV replication
